Tested on: 282377-053-R-J1-PDC complex spheroid viability
Experiment: Anticancer human tumor 282377-053-R-J1-PDC patient-derived colon adenocarcinoma cell line growth inhibition [RAS]
Details: for IC50: curve of first compound; for viability, T/C: stronger effect = lower value
From the text: RAS pathway inhibitors in Combinations in Complex Spheroids
A high-throughput screen of multi-cell type tumor spheroids was designed to identify active combinations of RAS pathway inhibitors and targeted small molecules. Complex spheroids include a stromal component modeled by human endothelial cells (HUVEC) and fibroblasts modeled by human mesenchymal stem cells (MSCs). The concentration ranges selected for each drug and investigational agent were based upon clinically achievable concentrations if the clinical Cmax of the agent was known.
Compounds. The drugs and investigational agents: abemaciclib (NSC768073), cobimetinib (NSC768068), divarasib (GDC6063, NSC841802), docetaxel (NSC628503), GDC-1971 (RLY-1971, NSC841576), gemcitabine (NSC613327), inavolisib (NSC800729), ipatasertib (NSC767898), KB-0742 (NSC834161), MRTX-1133 (NSC836407), osimertinib (NSC779217), RMC-4630 (NSC839698), RMC-6236 (NSC851965), RMC-6291 (NSC852671), Ro-3306 (NSC812927), sapanisertib (NSC764658), SN-38 (NSC673596), staurosporine (NSC755774), SY5609 (NSC837396), and tovorafenib (DAY101, NSC766906), were obtained from the National Cancer Institute (NCI) Developmental Therapeutics Program Chemical Repository. The FDA-approved anticancer drug set is available from the NCI Developmental Therapeutics Program. […] The stock solutions were prepared in dimethyl sulfoxide (DMSO, Sigma-Aldrich, St. Louis, MO, cat. D2650) at 800-fold the tested concentration and stored at -70 degrees C prior to their use. All drugs and investigational agents were tested over a range starting from a high concentration at or near the clinical Cmax and decreasing in half-log increments. If the clinical Cmax for an agent had not been determined, the highest concentration tested was 10 microM.
Cell Culture. All cells were maintained in an incubator at 37 degrees C and 5% CO2 with 95% humidity. The PDC lines were cultured according to standard operating procedures established by the NCI PDMR. All PDCs were thawed and cultured in Matrigel-coated flasks prepared with a working solution of 1X Ham's F-12 nutrient mix, without supplementation (Invitrogen, Waltham, MA, cat. 11765054), 100 U/mL penicillin-streptomycin (Invitrogen, cat. 15140122), and 2.5% Matrigel (Corning Inc., Corning, NY, cat. 354248) for the first three passages. The 362531-283-R-J2-PDC and 782815-120-R-J1-PDC lines were cultured in 6C/Colon 1B media, which includes advanced DMEM/F-12 (Thermo Fisher Scientific, cat. 12634028), 10 mM HEPES (Thermo Fisher Scientific, cat. 15630080), 1X GlutaMAX supplement (Thermo Fisher Scientific, cat. 35050061), 0.1 mg/mL primocin (InvivoGen, San Diego, CA, cat. ant-pm-2), 10% defined fetal bovine serum, heat inactivated (HyClone Laboratories Inc., Logan, UT, cat. SH30070.03HI), 50% L-WRN conditioned media (ATCC, cat. CRL-3276), 1.25 mM N-Acetyl-L-cysteine (Sigma-Aldrich, cat. A9165), 10 mM nicotinamide (Sigma-Aldrich, cat. N0636), 1X B-27 supplement (Thermo Fisher Scientific, cat. 17504044), 1X N-2 supplement (Thermo Fisher Scientific, cat. 17502048), 50 ng/mL human EGF (Thermo Fisher Scientific, cat. PHG0311), and 10 microM Y-27632 dihydrochloride (Tocris Bioscience, cat. 1254). The K12877-001-R-J1-PDC line was cultured in 6I media, which includes all 6C/Colon 1B media plus 10 ng/mL human FGF-10 (PeproTech, cat. 100-26), 1 ng/mL human FGF-2 (PeproTech, cat. 100-18B), 1 µM prostaglandin E2 (Tocris Bioscience, cat. 2296), […] hydrocortisone (Sigma-Aldrich, cat. H4001), and […] bovine insulin (Sigma-Aldrich, cat. I6634). The K86415-001-R-J1-PDC line was cultured in 6D media, which includes all 6C/Colon 1B media components minus the L-WRN conditioned media. The 485176-168-R4-J1-PDC was cultured in PANC media, which includes all 6C/Colon 1B media plus 100 ng/mL human FGF-10 (PeproTech, cat. 100-26), 500 nM SB-431542 (Selleckchem, cat. S1067), and 10 nM gastrin (Tocris Bioscience, cat. 3006). […]
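Also: spheroids exposed to agents for seven days before readout.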
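For viability, T/C in this document: luminescence viability as percent of DMSO vehicle control wells.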

IC50 (second compound 0.0316 µM): > 10 µM
IC50 (second compound 0.1 µM): > 10 µM
IC50 (second compound 0.316 µM): > 10 µM
IC50 (second compound 1 µM): > 10 µM
IC50 (second compound 3.16 µM): > 10 µM
IC50 (second compound 10 µM): > 10 µM
SMILES: Cc1nc(N2CCC3(CC2)COC(C)C3N)c(CO)nc1Sc1ccnc(N)c1Cl (configuration not stated) + C#Cc1c(F)ccc2cc(O)cc(-c3ncc4c(N5CC6CCC(C5)N6)nc(OCC56CCCN5CC(F)C6)nc4c3F)c12
viability, T/C (second compound 0.0316 µM, first compound 0.0316 µM): 101%
viability, T/C (second compound 0.0316 µM, first compound 0.1 µM): 120%
viability, T/C (second compound 0.0316 µM, first compound 0.316 µM): 114%
viability, T/C (second compound 0.0316 µM, first compound 1 µM): 113%
viability, T/C (second compound 0.0316 µM, first compound 3.16 µM): 95.9%
viability, T/C (second compound 0.0316 µM, first compound 10 µM): 87.3%
viability, T/C (second compound 0.1 µM, first compound 0.0316 µM): 109%
viability, T/C (second compound 0.1 µM, first compound 0.1 µM): 107%
viability, T/C (second compound 0.1 µM, first compound 0.316 µM): 88.7%
viability, T/C (second compound 0.1 µM, first compound 1 µM): 89.8%
viability, T/C (second compound 0.1 µM, first compound 3.16 µM): 99.5%
viability, T/C (second compound 0.1 µM, first compound 10 µM): 89.4%
viability, T/C (second compound 0.316 µM, first compound 0.0316 µM): 107%
viability, T/C (second compound 0.316 µM, first compound 0.1 µM): 114%
viability, T/C (second compound 0.316 µM, first compound 0.316 µM): 95%
viability, T/C (second compound 0.316 µM, first compound 1 µM): 100%
viability, T/C (second compound 0.316 µM, first compound 3.16 µM): 114%
viability, T/C (second compound 0.316 µM, first compound 10 µM): 101%
viability, T/C (second compound 1 µM, first compound 0.0316 µM): 116%
viability, T/C (second compound 1 µM, first compound 0.1 µM): 110%
viability, T/C (second compound 1 µM, first compound 0.316 µM): 110%
viability, T/C (second compound 1 µM, first compound 1 µM): 86%
viability, T/C (second compound 1 µM, first compound 3.16 µM): 98%
viability, T/C (second compound 1 µM, first compound 10 µM): 85%
viability, T/C (second compound 3.16 µM, first compound 0.0316 µM): 99.3%
viability, T/C (second compound 3.16 µM, first compound 0.1 µM): 103%
viability, T/C (second compound 3.16 µM, first compound 0.316 µM): 89.8%
viability, T/C (second compound 3.16 µM, first compound 1 µM): 111%
viability, T/C (second compound 3.16 µM, first compound 3.16 µM): 98.2%
viability, T/C (second compound 3.16 µM, first compound 10 µM): 120%
viability, T/C (second compound 10 µM, first compound 0.0316 µM): 110%
viability, T/C (second compound 10 µM, first compound 0.1 µM): 116%
viability, T/C (second compound 10 µM, first compound 0.316 µM): 114%
viability, T/C (second compound 10 µM, first compound 1 µM): 98.5%
viability, T/C (second compound 10 µM, first compound 3.16 µM): 85.8%
viability, T/C (second compound 10 µM, first compound 10 µM): 131%
